# Measurements taken from patent publication EP3338775B1, “USE OF BUTYLIDENEPHTHALIDE” (Everfront Biotech Inc., priority 2015, dated 2017).
# Several values for one entry are separate records, joined by “and”; a condition that tells them apart may be missing. Equal entries are not always repeated.
# What was measured:
# Format in all cases: cell-based
# [1] = tested on: malignant glioma DBTRG cells; experiment: MTT cell viability assay on malignant glioma DBTRG cells; conditions: 24-hour group
# Experimental: Thereafter, a cell viability assay, MTT assay, was utilized to analyze the viabilities of brain CSCs ^CD133+ and malignant glioma DBTRG cells. […] The results are shown in Figure 1A and Figure 1B for 24-hour group and 48-hour group (i.e., the treatment for 24 hours and 48 hours) and in Table 1 for 24-hour group.
# [2] = tested on: NHOKs (normal human oral keratinocytes); experiment: MTT viability assay on normal human oral keratinocytes; conditions: BP 0, 25, 50 and 100 µg/ml for 24 hours; Figure 2
# Experimental: NHOKs (normal human oral keratinocytes) and HNC-TIC (head and neck cancer-derived tumor initiating cell)-like oral stem cells (i.e., ALDH1^+CD44^+-1 cell line or ALDH1^+CD44^+-2 cell line) were treated with different concentrations (0, 25, 50 and 100 µg/ml) of BP for 24 hours, and then, an MTT assay was utilized to analyzed the viabilities of NHOKs and HNC-TIC-like oral stem cells (i.e., ALDH1^+CD44^+-1 cell line and ALDH1^+CD44^+-2 cell line).
# [3] = tested on: CD133, Sox-2 and Oct4 proteins; experiment: Western blotting of stemness-maintenance markers in brain CSCs CD133+; conditions: BP 0, 12.5, 25, 50, 62.5 and 75 µg/ml for 24 hours; Figures 4 and 5
# Experimental: It has been known that CD44, CD133, Sox-2 (sex-determining region Y protein (SRY)-related high-mobility group box 2) and Oct4 (octamerbinding transcription factor 4) proteins all are stemness-maintenance markers of cancer stem cells and participate in the regulation of the self-renewal and differentiation of cancer stem cells. Brain CSCs ^CD133+ was treated with different concentrations (0, 12.5, 25, 50, 62.5 and 75 µg/ml) of BP for 24 hours, and then, proteins were extracted from the cells to conduct Western blotting to determine the expressions of CD133, Sox-2 and Oct4 proteins in the BP-treated brain CSCs ^CD133+. In addition, MiaPaCa-2 cell line (i.e., a cell line of pancreatic cancer cells) was treated with different concentrations (0, 12.5, 25, and 50 µg/ml) of BP for 24 hours, and then, proteins were extracted from the cells to conduct Western blotting to determine the expressions of Sox-2, CD133 and CD44 proteins in the BP-treated MiaPaCa-2 cells. […]
# [4] = tested on: Axl and Gas6 proteins, Axl gene; experiment: Western blotting and RT-PCR of Axl and Gas6 in brain CSCs CD133+; conditions: BP 0, 12.5, 25, 50, 62.5 and 75 µg/ml for 24 hours, Figures 9A, 9B
# Experimental: It has been known that the expression of Axl (i.e., a receptor tyrosine kinase) is related to the ability of cancer stem cells in proliferation, anti-apoptosis, migration and invasion. Brain CSCs ^CD133+ was treated with different concentrations (0, 12.5, 25, 50, 62.5 and 75 µg/ml) of BP for 24 hours, and then, proteins and total RNA were extracted from the cells to conduct Western blotting and reverse transcriptase-polymerase chain reaction (RT-PCR) to determine the expressions of Axl and Gas6 (i.e., a ligand of Axl) proteins and the expression of Axl gene in the BP-treated brain CSCs ^CD133+.
# MMP-2 = experiment: Western blotting of MMP-2 protein in brain CSCs CD133+; conditions: BP 0, 12.5, 25, 50, 62.5 and 75 µg/ml for 24 hours, Figure 10
# Experimental: It has been known that at the start of the invasion of cancer stem cells, the extracellular matrix (ECM) is degraded by matrix metalloproteinases (MMPs). Wherein, the expressions of gelatinases, such as gelatinase-A (i.e., MMP-2) and gelatinase-B (i.e., MMP-9), are highly related to the histopathology of tumor metastasis. Brain CSCs ^CD133+ was treated with different concentrations (0, 12.5, 25, 50, 62.5 and 75 µg/ml) of BP for 24 hours, and then, proteins were extracted from the cells to conduct Western blotting to determine the expression of MMP-2 protein in the BP-treated brain CSCs ^CD133+.
# [5] = tested on: HNC-TIC-like oral stem cells (ALDH1^+CD44^+-1 cell line or ALDH1^+CD44^+-2 cell line); experiment: Transwell invasion assay with HNC-TIC-like oral stem cells; conditions: BP 0, 25 and 50 µg/ml for 24 hours
# Description: In this research, the effect of BP on inhibiting the migration and invasion of cancer stem cells was further investigated by a transwell invasion assay system (i.e., Transwell^○,R system, purchased from Corning, UK) with a polycarbonate filter membrane of 8-µm pore size (purchased from Coming, UK). First, the polycarbonate filter membrane was coated with Matrigel™ (purchased from BD Pharmingen, USA), and then, the coated membrane was placed in the lower chamber of the transwell invasion assay system. Then, the lower chamber was filled with 10% serum-containing medium. On the other hand, HNC-TIC-like oral stem cells (i.e., ALDH1^+CD44^+-1 cell line or ALDH1^+CD44^+-2 cell line) were treated with different concentrations (0, 25 and 50 µg/ml) of BP for 24 hours, and then, the treated cells of each group was cultured in the upper chamber which was filled with serum-free medium, at a cell density of 1×10^5 cells/100 µl for 24 hours. […] The invasion cancer cells of each group were counted and photographed over five visual fields of the membrane with the use of a 100-fold magnification under a microscope. The relative invasion ability of cells of each experimental group was calculated based on the result of the group treated with 0 µg/ml of BP.
# brain CSCs ^CD133+ = experiment: Wound healing assay with brain CSCs CD133+; conditions: BP 0-75 µg/ml or BCNU 0-400 µM for 24 hours; Figure 13
# Description: In this research, a wound healing assay was used to further investigate the effect of BP on inhibiting the metastasis of cancer stem cells.
structure (smiles),measurement,setting,value
"CCCC=C1OC(=O)c2ccccc21 [BP, butylidenephthalide]",IC50,[1],400 µM and 75.3 µg/mL
same,viability of NHOKs,[2],did not decrease
same,"expressions of CD133, Sox-2 and Oct4 proteins in brain CSCs ^CD133+",[3],significantly decreased
same,expressions of Axl and Gas6 proteins and the expression of Axl gene,[4],significantly decreased
same,expression of MMP-2 protein,MMP-2,significantly decreased
same,number of cells on the polycarbonate filter membrane,[5]; Figure 11A,significantly reduced
same,relative invasion ability of cancer stem cells,"[5]; relative to 0 µg/ml group, Figure 11B",decreased along with the increment in the concentration of BP
same,number of brain CSCs ^CD133+ migrated to the wound,brain CSCs ^CD133+,significantly decreased
